Data taken from PubChem BioAssay (NCI).
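Grown in 96-well plates, cells were treated for 48 hours with each compound at five concentrations. Insufficient inhibition: endpoint recorded as highest concentration tested. TGI denotes the concentration required for complete inhibition of growth.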

Columns and labels:
Assay in all cases: inhibition of tumour cell growth, NCI panel, 48 h
OVCAR-5 ovarian = system: OVCAR-5 ovarian
U251 CNS = system: U251 CNS
EKVX NSCLC = system: EKVX NSCLC
HCC-2998 colon = system: HCC-2998 colon
TK-10 renal = system: TK-10 renal
A549 NSCLC = system: A549 NSCLC
HOP-62 NSCLC = system: HOP-62 NSCLC
KM12 colon = system: KM12 colon
NCI-H522 lung = system: NCI-H522 lung
SN12C renal = system: SN12C renal
MALME-3M melanoma = system: MALME-3M melanoma
CAKI-1 renal = system: CAKI-1 renal
SNB-19 CNS = system: SNB-19 CNS
HCT-116 colon = system: HCT-116 colon
786-0 renal = system: 786-0 renal
HT29 colon = system: HT29 colon
SF-539 CNS = system: SF-539 CNS
RXF 393 renal = system: RXF 393 renal
MOLT-4 leukemia = system: MOLT-4 leukemia
SNB-78 CNS = system: SNB-78 CNS
HOP-18 NSCLC = system: HOP-18 NSCLC
KM20L2 colon = system: KM20L2 colon
M19-MEL melanoma = system: M19-MEL melanoma
OVCAR-4 ovarian = system: OVCAR-4 ovarian
CCRF-CEM leukemia = system: CCRF-CEM leukemia
LOX IMVI melanoma = system: LOX IMVI melanoma
LXFL 529 NSCLC = system: LXFL 529 NSCLC
HOP-92 NSCLC = system: HOP-92 NSCLC
UACC-257 melanoma = system: UACC-257 melanoma
OVCAR-3 ovarian = system: OVCAR-3 ovarian
COLO 205 colon = system: COLO 205 colon
SK-MEL-5 melanoma = system: SK-MEL-5 melanoma
UO-31 renal = system: UO-31 renal
SF-268 CNS = system: SF-268 CNS
UACC-62 melanoma = system: UACC-62 melanoma
SNB-75 CNS = system: SNB-75 CNS
RXF-631 renal = system: RXF-631 renal
NCI-H23 lung = system: NCI-H23 lung
RPMI-8226 leukemia = system: RPMI-8226 leukemia
IGROV1 ovarian = system: IGROV1 ovarian
DLD-1 colon = system: DLD-1 colon
SK-MEL-28 melanoma = system: SK-MEL-28 melanoma
SK-OV-3 ovarian = system: SK-OV-3 ovarian
OVCAR-8 ovarian = system: OVCAR-8 ovarian
HL-60(TB) leukemia = system: HL-60(TB) leukemia
M14 melanoma = system: M14 melanoma
SW-620 colon = system: SW-620 colon
SR leukemia = system: SR leukemia
XF 498 CNS = system: XF 498 CNS
NCI-H226 lung = system: NCI-H226 lung
NCI-H460 lung = system: NCI-H460 lung
A498 renal = system: A498 renal
K-562 leukemia = system: K-562 leukemia
HCT-15 colon = system: HCT-15 colon
SF-295 CNS = system: SF-295 CNS
ACHN renal = system: ACHN renal
DMS 273 small cell lung = system: DMS 273 small cell lung
DMS 114 small cell lung = system: DMS 114 small cell lung
SK-MEL-2 melanoma = system: SK-MEL-2 melanoma

COc1cccc(/C=C/C(=O)c2sc(C(N)=S)nc2C)c1O
TGI (OVCAR-5 ovarian): > 100 µM
TGI (U251 CNS): > 100 µM
TGI (EKVX NSCLC): > 100 µM
TGI (HCC-2998 colon): > 100 µM
TGI (TK-10 renal): > 100 µM
TGI (A549 NSCLC): > 100 µM
TGI (HOP-62 NSCLC): > 100 µM
TGI (KM12 colon): > 100 µM
TGI (NCI-H522 lung): > 74 µM
TGI (SN12C renal): > 100 µM
TGI (MALME-3M melanoma): > 100 µM
TGI (CAKI-1 renal): > 100 µM
TGI (SNB-19 CNS): > 100 µM
TGI (HCT-116 colon): > 92.5 µM
TGI (786-0 renal): > 100 µM
TGI (HT29 colon): > 100 µM
TGI (SF-539 CNS): 97 µM
TGI (RXF 393 renal): > 100 µM
TGI (MOLT-4 leukemia): > 82.8 µM
TGI (SNB-78 CNS): > 100 µM
TGI (HOP-18 NSCLC): > 100 µM
TGI (KM20L2 colon): > 100 µM
TGI (M19-MEL melanoma): > 100 µM
TGI (OVCAR-4 ovarian): > 100 µM
TGI (CCRF-CEM leukemia): 64.2 µM
TGI (LOX IMVI melanoma): 56.7 µM
TGI (LXFL 529 NSCLC): > 50.1 µM
TGI (HOP-92 NSCLC): > 100 µM
TGI (UACC-257 melanoma): > 100 µM
TGI (OVCAR-3 ovarian): > 100 µM
TGI (COLO 205 colon): > 100 µM
TGI (SK-MEL-5 melanoma): > 100 µM
TGI (UO-31 renal): > 100 µM
TGI (SF-268 CNS): > 100 µM
TGI (UACC-62 melanoma): > 100 µM
TGI (SNB-75 CNS): > 100 µM
TGI (RXF-631 renal): > 100 µM
TGI (NCI-H23 lung): > 100 µM
TGI (RPMI-8226 leukemia): > 83.3 µM
TGI (IGROV1 ovarian): > 100 µM
TGI (DLD-1 colon): > 68.5 µM
TGI (SK-MEL-28 melanoma): > 100 µM
TGI (SK-OV-3 ovarian): > 100 µM
TGI (OVCAR-8 ovarian): > 100 µM
TGI (HL-60(TB) leukemia): > 100 µM
TGI (M14 melanoma): > 100 µM
TGI (SW-620 colon): 86.3 µM
TGI (SR leukemia): 32.5 µM
TGI (XF 498 CNS): > 100 µM
TGI (NCI-H226 lung): > 100 µM
TGI (NCI-H460 lung): > 100 µM
TGI (A498 renal): > 100 µM
TGI (K-562 leukemia): > 100 µM
TGI (HCT-15 colon): > 76.5 µM
TGI (SF-295 CNS): > 100 µM
TGI (ACHN renal): > 100 µM
TGI (DMS 273 small cell lung): > 91.3 µM
TGI (DMS 114 small cell lung): > 100 µM
TGI (SK-MEL-2 melanoma): > 100 µM

CN/C=C(\C(=O)c1ccc(OC)c(OC)c1)c1ccc(OC)cc1
TGI (U251 CNS): 21.3 µM
TGI (EKVX NSCLC): > 100 µM
TGI (TK-10 renal): 37.9 µM
TGI (A549 NSCLC): > 100 µM
TGI (HOP-62 NSCLC): 94 µM
TGI (KM12 colon): 29.5 µM
TGI (NCI-H522 lung): 36 µM
TGI (SN12C renal): 31.7 µM
TGI (SNB-19 CNS): > 100 µM
TGI (HCT-116 colon): 18.1 µM
TGI (786-0 renal): 23.9 µM
TGI (HT29 colon): 38.2 µM
TGI (SF-539 CNS): 14.1 µM
TGI (RXF 393 renal): 33.2 µM
TGI (MOLT-4 leukemia): 62 µM
TGI (HOP-18 NSCLC): 20.9 µM
TGI (M19-MEL melanoma): 34.3 µM
TGI (OVCAR-4 ovarian): 80.1 µM
TGI (CCRF-CEM leukemia): 23.8 µM
TGI (LOX IMVI melanoma): 29.8 µM
TGI (LXFL 529 NSCLC): 30.2 µM
TGI (UACC-257 melanoma): 39.5 µM
TGI (COLO 205 colon): 38.3 µM
TGI (SK-MEL-5 melanoma): 35 µM
TGI (UO-31 renal): 48.6 µM
TGI (SF-268 CNS): 72.9 µM
TGI (UACC-62 melanoma): 49.6 µM
TGI (SNB-75 CNS): > 100 µM
TGI (RXF-631 renal): 32.5 µM
TGI (NCI-H23 lung): > 100 µM
TGI (RPMI-8226 leukemia): 24.4 µM
TGI (IGROV1 ovarian): > 100 µM
TGI (DLD-1 colon): 31.7 µM
TGI (SK-MEL-28 melanoma): 39.7 µM
TGI (SK-OV-3 ovarian): > 100 µM
TGI (OVCAR-8 ovarian): 30.4 µM
TGI (HL-60(TB) leukemia): 32.3 µM
TGI (M14 melanoma): 37 µM
TGI (SW-620 colon): 37.5 µM
TGI (SR leukemia): 60.7 µM
TGI (XF 498 CNS): 33.2 µM
TGI (NCI-H226 lung): 41.5 µM
TGI (NCI-H460 lung): 63.2 µM
TGI (A498 renal): 28.2 µM
TGI (K-562 leukemia): 27.1 µM
TGI (HCT-15 colon): 28.2 µM
TGI (SF-295 CNS): > 100 µM
TGI (ACHN renal): 75.1 µM
TGI (DMS 273 small cell lung): 21.7 µM
TGI (DMS 114 small cell lung): 46.8 µM
TGI (SK-MEL-2 melanoma): 31.5 µM

NS(=O)(=O)c1ccc(NC(=O)Cc2nc3ccccc3s2)cc1
TGI (OVCAR-5 ovarian): 35.2 µM
TGI (U251 CNS): 28.5 µM
TGI (EKVX NSCLC): 37.2 µM
TGI (HCC-2998 colon): 35.8 µM
TGI (TK-10 renal): 44.9 µM
TGI (A549 NSCLC): 37.9 µM
TGI (HOP-62 NSCLC): 50.9 µM
TGI (KM12 colon): 30.8 µM
TGI (NCI-H522 lung): 33.2 µM
TGI (SN12C renal): 30.9 µM
TGI (MALME-3M melanoma): 30.3 µM
TGI (CAKI-1 renal): 30.5 µM
TGI (SNB-19 CNS): 49.5 µM
TGI (HCT-116 colon): 31 µM
TGI (786-0 renal): 33.5 µM
TGI (HT29 colon): 35.4 µM
TGI (SF-539 CNS): 32.3 µM
TGI (RXF 393 renal): 32.6 µM
TGI (MOLT-4 leukemia): 58.6 µM
TGI (SNB-78 CNS): 41.6 µM
TGI (HOP-18 NSCLC): 34.8 µM
TGI (KM20L2 colon): 33.9 µM
TGI (M19-MEL melanoma): 28.1 µM
TGI (OVCAR-4 ovarian): 34.9 µM
TGI (CCRF-CEM leukemia): 47.3 µM
TGI (LXFL 529 NSCLC): 30.7 µM
TGI (HOP-92 NSCLC): 29.8 µM
TGI (UACC-257 melanoma): 29.6 µM
TGI (OVCAR-3 ovarian): 30.4 µM
TGI (COLO 205 colon): 34 µM
TGI (SK-MEL-5 melanoma): 34.5 µM
TGI (UO-31 renal): 62.6 µM
TGI (SF-268 CNS): 30.7 µM
TGI (UACC-62 melanoma): 29.4 µM
TGI (SNB-75 CNS): 30.4 µM
TGI (RXF-631 renal): 30.3 µM
TGI (NCI-H23 lung): 29.5 µM
TGI (RPMI-8226 leukemia): 74.1 µM
TGI (IGROV1 ovarian): 29.9 µM
TGI (DLD-1 colon): 29.5 µM
TGI (SK-MEL-28 melanoma): 32 µM
TGI (SK-OV-3 ovarian): 40.5 µM
TGI (OVCAR-8 ovarian): 34.9 µM
TGI (HL-60(TB) leukemia): 45.7 µM
TGI (M14 melanoma): 29.4 µM
TGI (SW-620 colon): 31.7 µM
TGI (SR leukemia): 71 µM
TGI (XF 498 CNS): 29.8 µM
TGI (NCI-H226 lung): 33 µM
TGI (NCI-H460 lung): 35.6 µM
TGI (A498 renal): 36.8 µM
TGI (K-562 leukemia): 59.4 µM
TGI (HCT-15 colon): 32.3 µM
TGI (SF-295 CNS): 33.2 µM
TGI (ACHN renal): 29.3 µM
TGI (DMS 273 small cell lung): 33.1 µM
TGI (DMS 114 small cell lung): 29.2 µM
TGI (SK-MEL-2 melanoma): 31.9 µM
